{"source": "patent US20120225889A1", "about": "“USE OF MACROCYCLIC LACTONE DERIVATIVES FOR THE TREATMENT OF INFLAMMATORY DISORDERS” (PIRAMAL LIFE SCIENCES LIMITED, priority 2010, published 2012)", "key": {"[1]": {"tested_on": "C57BL mice with DSS induced colitis", "assay": "DSS induced murine model of acute colitis", "type": "in vivo", "experimental": "The assay was designed as in references, Laboratory Investigation, 80, 1541, (2000), and Faseb Journal, 19:792, (2005), the disclosure of which is incorporated by reference for the teaching of the assay.\nNormal, in-house bred female C57BL mice weighing […], 8-10 weeks old, were used. The animals were housed in individually ventilated cages, three per cage, throughout the experimental period.\nExperimental colitis was induced in mice by replacing drinking water with 3% (w/v) DSS (molecular weight 36,000-50,000, MP Biomedicals Inc., USA) solution. This solution was prepared in water, freshly every alternate day and was made available to the experimental animals ad libitum, from day 0 to day 10. A batch of six naïve animals received water instead of DSS during this period.\nThe animals were weighed every day and the record of body weights was maintained. The suspension of test compound (was prepared at a concentration of 0.05 mg/mL, in 0.5% (w/v) CMC after mixing with minimum quantity of Tween 80 necessary to wet the compound, and was administered orally, daily once to the animals at a volume of 10 mL/kg (dose=0.5 mg/kg). This treatment was initiated on day 6 and continued up to day 10. During this period, DSS control animals and naïve animals received CMC (mixed in the same proportion with 100 μL of Tween 80) at a dose of 10 mL/kg, daily once.\nOn day 11, the animals were sacrificed, blood was collected in heparinized tubes and the following parameters were studied; • 1. Rectal bleeding/blood in faeces • 2. Fecal consistency • 3. Bleeding in colon • 4. Colon weight • 5. Colon length • 6. Change in body weight on day 11 from that of day 0 • 7. Blood hemoglobin concentration\nThe data are represented in the following tables (Table 8, Table 9 and Table 10) as quantifiable parameters, descriptive parameters and actual scores. The descriptive parameters are represented by DAI. DAI is a research tool used to quantify the symptoms of the colitic animals. DAI is used in order to define response of the treatment or remission of the disease. In order to achieve this, various factors are studied. […] DAI is the sum of the scores of all factors.\nOn the last day of compound treatment (compound of example 7, 0.5 mg/kg, p.o., […]) the animals were euthanized humanely, blood samples were collected and the colon was excised. Anterior part of the colon was washed with normal saline to remove fecal material and then fixed in 10% NBF (Neutral buffered formalin). After 10 days of fixation the colon specimens were trimmed and processed overnight using automated tissue processor. Following day the specimens were blocked in paraffin and exposed to cold shock overnight at −18° C. Sections (5μ) were made from cross section of the colonic lumen and stained with routine Hematoxyllin (Sigma, USA) & Eosin (Loba Chemie, India) and mounted permanently. Slides were dried for 24 h and then graded histologically. The results were expressed as histological scores. Histological analysis was based on various parameters like presence of inflammatory cells, erosions, crypt destruction, edema and overall architectural changes graded on a score of 0 to 3, wherein 0 corresponds to absence, 1 corresponds to changes in 25% of the circumference of the colonic lumen, 2 corresponds to up to 50% and 3 corresponds to more than 50% of colonic circumference getting affected. All the scores were summed up to arrive to a total histological score for each section. Two random sections were graded and mean was calculated."}, "[2]": {"tested_on": "IL-6", "assay": "Screening in LPS stimulated THP-1 cells: IL-6", "type": "cell-based", "settings": "Homo sapiens, 24 h, ELISA", "experimental": "IL-6 (BD Biosciences, USA) production by LPS (Escherchia coli 0127:B8, Sigma, USA) in THP-1 cells (ATCC number: TIB202) was designed as in reference, Journal of Immunology, 151, 5631-5638, (1993), the disclosure of which is incorporated by reference for the teaching of the assay.\nTHP-1 cells were cultured in RPMI 1640 culture medium (Gibco BRL, UK) containing 100 U/mL penicillin and […] streptomycin, (100× solution, Sigma, USA) containing 10% FBS (JRH Biosciences, USA). 25,000 cells were seeded per well in 96-well plate (Nunc, USA). The cells were differentiated with PMA (Sigma, USA, prepared as 100 μg/mL stock in RPMI and was diluted to 5 ng/mL). The test compound (prepared as 20 mM stock in DMSO and diluted with DMSO to achieve the following final concentrations in the assay: 100, 10, 1, 0.1, 0.01, 0.001 and 0.0001 μM) or vehicle (0.5% DMSO) were added to the cells and the cells were incubated for 30 min at 37° C. LPS (Sigma, USA, prepared as 1 mg/mL stock in PBS) was added to achieve a final concentration of 1 μg/mL. Plates were incubated at 37° C. for 24 h at 5% CO2. Supernatants were harvested, and assayed for TNF-α and IL-6 by ELISA as described by the manufacturer (BD Biosciences, USA). Percent inhibition of cytokine release compared to the control was calculated. The IC50 values were calculated by a nonlinear regression method."}, "[3]": {"settings": "day 11, DSS mice, 0.5 mg/kg orally daily once, day 6 to day 10"}, "[4]": {"settings": "score 0-3 (Table 9), DSS mice, 0.5 mg/kg orally daily once, day 6 to day 10"}}}
{"compound": "C/C=C/C(O)C(C)/C=C/C(=N\\O)C(C)C(O)C(C)C1OC(=O)/C(OC)=C/C(C)=C/C(C)C(O)C(CC)C(O)C(C)C/C(C)=C/C=C/C1OC", "note": "(stereo not shown) [Compound of example 7, (3Z,5E,13E,15E)-18-((5Z,6E,10E)-3,9-Dihydroxy-5-(hydroxymino)-4,8-dimethyldodeca-6,10-dien-2-yl)-9-ethyl-8,10-dihydroxy-3,17-dimethoxy-5,7,11,13-tetramethyl oxacyclooctadeca-3,5,13,15-tetraen-2-one]", "values": [{"measurement": "Group mean histological score (colon)", "setting": "[1]; 0.5 mg/kg, p.o., b.i.d, DSS control 7.50+0.96", "value": "5.33+0.99"}, {"measurement": "histological damage (colon)", "setting": "[1]; DSS induced colitic C57BL mice", "value": "confer protection against histological damage"}, {"measurement": "Hbg %", "setting": "[1]; blood hemoglobin, day 11, DSS mice, 0.5 mg/kg orally daily once, day 6 to day 10", "value": "10.77 ± 0.48", "unit": "g %"}, {"measurement": "Colon length", "setting": "[1]; [3]", "value": "7.33 ± 0.30"}, {"measurement": "Colon weight mg", "setting": "[1]; [3]", "value": "273.8 ± 8.93", "unit": "mg"}, {"measurement": "Colon weight mg per cm", "setting": "[1]; [3]", "value": "37.6 ± 1.8", "unit": "mg per cm"}, {"measurement": "Change in body weight", "setting": "[1]; day 11 from day 0, DSS mice, 0.5 mg/kg orally daily once, day 6 to day 10", "value": "+0.57 ± 0.28"}, {"measurement": "severity of colitis", "setting": "[1]; orally 0.5 mg/kg, mice with DSS induced colitis", "value": "reduces the severity of colitis"}, {"measurement": "Blood in colon score", "setting": "[1]; [4]", "value": "0.61 ± 0.30"}, {"measurement": "Fecal consistency score", "setting": "[1]; [4]", "value": "1.0 ± 0.50"}, {"measurement": "Rectal bleeding score", "setting": "[1]; [4]", "value": "0.18 ± 0.15"}, {"measurement": "Disease activity index", "setting": "[1]; sum of the scores of all features, DSS mice, 0.5 mg/kg orally daily once, day 6 to day 10", "value": "1.67 ± 0.47"}, {"measurement": "IC50", "setting": "[2]", "value": 40, "unit": "nM"}]}
